{"source": "patent US8247447B2", "about": "“Use of derivatives of 4-hydroxyphenoxy acetic acid” (Cognis IP Management GmbH, priority 2007, dated 2012)", "test_system": "Melanocytes (B16 cell line)", "experiment": "Melanogenesis inhibition assay (melanin level by optical density at 475 nm; viable cells by cellular proteins, Bradford's method)", "format": "cell-based", "settings": "for Protein level (rate of cellular proteins) / Melanin level (rate of melanin): B16 melanocytes, 3 days incubation; for Protein level (rate of cellular proteins): Bradford's method; for Melanin level (rate of melanin): OD 475 nm", "protocol": "Melanocytes (B16 cell line) were inoculated in standard medium of cell culture with foetal calf serum (FCS). After an incubation of 3 day at 37° C. and CO2=5%, growth medium was exchanged for standard medium with a range of concentrations for each compound to be tested and a control without ingredient. After an incubation of 3 days, the level of melanin was measured by recording the optical density at 475 nm. After washing the cells by a balanced salt, and homogenisation in a solution of 0.1 M NaOH, the number of viable cells was determined by evaluation of the level of cellular proteins (Bradford's method). The results are expressed in % against control (cell culture medium without compound) as a mean on 1 to 3 assays, each in triplicate.", "data": [{"compound": "CC(Oc1ccc(O)cc1)C(=O)O", "note": "(racemic) [2-(4-hydroxyphenoxy)-propionic acid]", "values": [{"measurement": "Protein level (rate of cellular proteins)", "setting": "dose 0.00003 % (w/v)", "result": 103, "unit": "%/control"}, {"measurement": "Melanin level (rate of melanin)", "setting": "dose 0.00003 % (w/v)", "result": 84, "unit": "%/control"}, {"measurement": "Protein level (rate of cellular proteins)", "setting": "dose 0.0001 % (w/v)", "result": 97, "unit": "%/control"}, {"measurement": "Melanin level (rate of melanin)", "setting": "dose 0.0001 % (w/v)", "result": 57, "unit": "%/control"}, {"measurement": "Protein level (rate of cellular proteins)", "setting": "dose 0.0003 % (w/v)", "result": 107, "unit": "%/control"}, {"measurement": "Melanin level (rate of melanin)", "setting": "dose 0.0003 % (w/v)", "result": 52, "unit": "%/control"}, {"measurement": "Protein level (rate of cellular proteins)", "setting": "dose 0.001 % (w/v)", "result": 104, "unit": "%/control"}, {"measurement": "Melanin level (rate of melanin)", "setting": "dose 0.001 % (w/v)", "result": 39, "unit": "%/control"}, {"measurement": "Protein level (rate of cellular proteins)", "setting": "dose 0.01 % (w/v)", "result": 98, "unit": "%/control"}, {"measurement": "Melanin level (rate of melanin)", "setting": "dose 0.01 % (w/v)", "result": 37, "unit": "%/control"}, {"measurement": "cell toxicity", "setting": "melanocytes, doses up to 0.01%", "result": "without any cell toxicity"}, {"measurement": "rate of melanin synthesis in melanocytes", "setting": "result in words, over the tested dose range", "result": "decreased in a dose dependant manner"}]}]}
